Data as given in patent US20170121344A1 (Siga Technologies, Inc., priority 2009, published 2017).
Like-named read-outs stand apart in the source and are kept apart here.

Test system: Dengue-2 (Strain New Guinea C)
Test: Viral yield assay against Dengue-2 in Vero cells
Type: cell-based, Dengue virus
Settings: Dengue virus
Outline: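 Virus yield, titered on Vero cells from cultures harvested at 48 h post infection, gave the EC50. Cultures were infected at MOI 0.1 with dengue-2 and treated with compound or DMSO at 37° C. DENV-1 and DENV-4 were determined similarly.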

[1] = Vero cells, MOI 0.1, harvested 48 hours post infection, read-out: Activity (EC50 class) against Dengue-2 Virus in Vero cells
[2] = DENV2, viral yield assay, Vero cells, MOI 0.1, 48 hours post infection, read-out: Activity (EC50 in μM) DENV-2
[3] = DENV2, Vero, 48 h, read-out: Activity (EC50 in μM) DENV-2
[4] = Vero, 48 h, read-out: Activity (EC50 class) against Dengue-2 Virus in Vero cells

Row | SMILES | EC50 [1] [µM] | EC50 [2] [µM] | other results
1 | CN1CCc2nc3sc(C(=O)Nc4c(F)cccc4F)c(N)c3cc2C1 [Compound 277, 3-Amino-6-methyl-5,6,7,8-tetrahydro-thieno[2,3-b][1,6]naphthyridine-2-carboxylic acid (2,6-difluoro-phenyl)-amide] | > 25 | – | –
2 | O=C1CN(c2cccc(C(F)(F)F)c2)C(=O)c2sc3nc(-c4cccs4)ccc3c2N1 [Compound 320] | – | < 5 | –
3 | Nc1c(C(=O)Nc2ccc(C(=O)C(F)(F)F)cc2)sc2nc(-c3ccc(Cl)cc3)ccc12 [Compound 351, 3-amino-6-(4-chlorophenyl)-N-[4-(2,2,2-tri-fluoroacetyl)phenyl]thieno [2,3-b]pyridine-2-carboxamide] | – | < 5 | –
4 | COc1cccc(-c2ccc3c(N)c(C(=O)Nc4cc(F)ccc4C)sc3n2)c1 [Compound 565, 3-amino-N-(5-fluoro-2-methyl-phenyl)-6-(3-methoxyphenyl)thieno[2,3-b] pyridine-2-carboxamide] | – | < 5 | –
5 | Cc1cc(C)c2c(C)c(C(=O)Nc3ccc(NC(=O)C4CC4)cc3)sc2n1 [Compound 393, N-[4-(cyclopropanecarbonylamino)phenyl]-3,4,6-trimethyl-thieno[2,3-b]pyridine-2-carboxamide] | – | 5 to 25 | –
6 | C=CCc1c(C)nc2sc(C(=O)Nc3cccc(Cl)c3)c(N)c2c1C [Compound 96, 5-Allyl-3-amino-4,6-dimethyl-thieno[2,3-b]pyridine-2-carboxylic acid (3-chloro-phenyl)-amide] | 5 to 25 | – | –
7 | Cc1ccc(-c2c3c(nc4sc(C(N)=O)c(N)c24)CCCCC3)cc1 [Compound 220, 3-Amino-4-p-tolyl-6,7,8,9-tetrahydro-5H-1-thia-10-aza-cyclohepta[f]indene-2-carboxylic acid amide] | > 25 | – | –
8 | CC1(C)Cc2c(c(N3CCOCC3)nc3sc4c(=O)n(-c5ccc(Cl)c(Cl)c5)cnc4c23)CO1 [Compound 245, 9-(3,4-Dichloro-phenyl)-2,2-dimethyl-5-morpholin-4-yl-1,4-dihydro-2H,9H-3-oxa-7-thia-6,9,11-triaza-benzo[c]fluoren-8-one] | > 25 | – | –
9 | CN(C)CC(=O)Nc1c(C(=O)Nc2cccc(C(F)(F)F)c2)sc2nc(-c3cccs3)ccc12 [Compound 308, 3-[[2-(dimethylamino)acetyl]amino]-6-(2-thienyl)-N-[3-(trifluoromethyl)phenyl]thieno[2,3-b]pyridine-2-carboxamide] | – | – | EC50 (DENV2, Vero cells, read-out: Activity (EC50 in μM) DENV-2): < 5 µM
10 | CN(C)CCN(C(=O)c1sc2nc(-c3cccs3)ccc2c1N)c1cccc(C(F)(F)F)c1 [Compound 323, 3-amino-N-(2-dimethylaminoethyl)-6-(2-thienyl)-N-[3-(trifluoromethyl)phenyl]thieno[2,3-b]pyridine-2-carboxamide] | – | < 5 | –
11 | CCOc1cccc(NC(=O)c2sc3nc(-c4ccc(OC)c(OC)c4)ccc3c2N)c1 [Compound 582, 3-amino-6-(3,4-dimethoxyphenyl)-N-(3-ethoxyphenyl)thieno[2,3-b]pyridine-2-carboxamide] | – | – | EC50 [3]: < 5 µM
12 | COc1ccc(NC(=O)c2sc3nc4c(c(-c5cccs5)c3c2N)CN(C)CC4)cc1 [Compound 28, 3-Amino-6-methyl-4-thiophen-2-yl-5,6,7,8-tetrahydro-thieno[2,3-b][1,6]naphthyridine-2-carboxylic acid (4-methoxy-phenyl)-amide] | < 5 | – | –
13 | COCc1cc(C)nc2sc(C(=O)Nc3ccc(C(C)=O)cc3)c(N)c12 [Compound 141, 3-Amino-4-methoxymethyl-6-methyl-thieno[2,3-b]pyridine-2-carboxylic acid (4-acetyl-phenyl)-amide] | > 25 | – | –
14 | Cc1ccc(F)cc1NC(=O)c1sc2nc(-c3cccs3)ccc2c1N [Compound 463, 3-amino-N-(5-fluoro-2-methyl-phenyl)-6-(2-thienyl)thieno [2,3-b]pyridine-2-carboxamide] | – | < 5 | –
15 | COCc1cc(C)nc2sc(C(=O)N3CCc4ccccc43)c(N)c12 [Compound 249, (3-Amino-4-methoxymethyl-6-methyl-thieno[2,3-b]pyridin-2-yl)-(2,3-dihydro-indol-1-yl)-methanone] | > 25 | – | –
16 | Cc1ccc(-c2ccc3c(N)c(C(=O)Nc4cccc(C)c4)sc3n2)cc1 [Compound 644, 3-amino-N-(m-tolyl)-6-(p-tolyl)thieno[2,3-b]pyridine-2-carboxamide] | – | < 5 | –
17 | Cc1ccccc1NC(=O)c1sc2nc(-c3cccs3)ccc2c1N [Compound 477, 3-amino-N-(o-tolyl)-6-(2-thienyl)thieno [2,3-b]pyridine-2-carboxamide] | – | – | EC50 [3]: < 5 µM
18 | O=c1[nH]c2c(sc3nc(-c4cccs4)ccc32)c(=O)n1-c1cccc(C(F)(F)F)c1 [Compound 316, 7-(thiophen-2-yl)-3-(3-(trifluoromethyl)phenyl)pyrido[3′,2′:4,5]thieno[3,2-d]pyrimidine-2,4(1H,3H)-dione] | – | < 5 | –

Row | SMILES | EC50 [1] [µM] | EC50 [2] [µM] | other results
19 | CCc1nc2sc(C(=O)Nc3cccc(C(F)(F)F)c3)c(N)c2cc1C [Compound 93, 3-Amino-6-ethyl-5-methyl-thieno[2,3-b]pyridine-2-carboxylic acid (3-trifluoromethyl-phenyl)-amide] | 5 to 25 | – | –
20 | Cc1ccc(NC(=O)c2sc3nc(-c4ccc(F)cc4)ccc3c2N)c(C)c1 [Compound 614, 3-amino-N-(2,4-dimethylphenyl)-6-(4-fluorophenyl)thieno[2,3-b]pyridine-2-carboxamide] | – | < 5 | –
21 | Nc1c(C(=O)Nc2ccccc2Br)sc2ncccc12 [Compound 422, 3-amino-N-(2-bromophenyl)thieno[2,3-b] pyridine-2-carboxamide] | – | < 5 | –
22 | Cc1nc2sc(C(=O)Nc3ccc(Br)cc3)c(N)c2c(C)c1C [Compound 157, 3-Amino-4,5,6-trimethyl-thieno[2,3-b]pyridine-2-carboxylic acid (4-bromo-phenyl)-amide] | – | – | EC50 [4]: > 25 µM
23 | NC(=O)c1sc2nc3c(c(-c4ccc(Cl)cc4)c2c1N)CCCC3 [Compound 224, 3-Amino-4-(4-chloro-phenyl)-5,6,7,8-tetrahydro-thieno[2,3-b]quinoline-2-carboxylic acid amide] | – | – | EC50 [4]: > 25 µM
24 | Nc1c(C(=O)N2CCOCC2)sc2nc(-c3ccccc3)cc(C(F)(F)F)c12 [Compound 89, (3-Amino-6-phenyl-4-trifluoromethyl-thieno[2,3-b]pyridin-2-yl)-morpholin-4-yl-methanone] | 5 to 25 | – | –
25 | COCc1cc(C)nc2sc(C(=O)Nc3ccc(Cl)cc3)c(N)c12 [Compound 81, 3-Amino-4-methoxymethyl-6-methyl-thieno[2,3-b]pyridine-2-carboxylic acid (4-chloro-phenyl)-amide] | – | – | EC50 [4]: 5 to 25 µM
26 | CC(C)N1CCc2nc3sc(C(=O)Nc4ccc(C(F)(F)F)cc4)c(N)c3cc2C1 [Compound 60, 3-Amino-6-isopropyl-5,6,7,8-tetrahydro-thieno[2,3-b][1,6]naphthyridine-2-carboxylic acid (4-trifluoromethyl-phenyl)-amide] | < 5 | – | –
27 | COc1ccccc1C(C)N(C)C(=O)c1sc2nc(C)cc(C)c2c1C (stereo not drawn) [Compound 409, N-[1-(2-methoxyphenyl)ethyl]-N,3,4,6-tetramethyl-thieno[2,3-b]pyridine-2-carboxamide] | – | > 25 | –
28 | COc1ccc(-c2ccc3c(N)c(C(=O)Nc4cccc(C)c4)sc3n2)cc1OC [Compound 633, 3-amino-6-(3,4-dimethoxyphenyl)-N-(m-tolyl)thieno[2,3-b]pyridine-2-carboxamide] | – | < 5 | –
29 | Nc1c(C(=O)Nc2ccc([N+](=O)[O-])cc2)sc2nc(-c3cccs3)cc(C(F)(F)F)c12 [Compound 221, 3-Amino-6-thiophen-2-yl-4-trifluoromethyl-thieno[2,3-b]pyridine-2-carboxylic acid (4-nitro-phenyl)-amide] | > 25 | – | –
30 | COc1ccc(NC(=O)c2sc3nc(N4CCOCC4)c4c(c3c2N)CC(C)(C)OC4)cc1 [Compound 244, 1-Amino-8,8-dimethyl-5-morpholin-4-yl-8,9-dihydro-6H-7-oxa-3-thia-4-aza-cyclopenta[a]naphthalene-2-carboxylic acid (4-methoxy-phenyl)-amide] | – | – | EC50 [4]: > 25 µM
31 | Nc1c(C(=O)N2CCC[C@H]2C(=O)O)sc2nc(-c3cccs3)ccc12 [Compound 484, 1-[3-amino-6-(2-thienyl)thieno[2,3-b]pyridine-2-carbonyl]pyrrolidine-2-carboxylic acid] | – | – | EC50 [3]: < 5 µM
32 | CN1CCc2nc3sc(C(=O)NCc4ccccc4)c(N)c3cc2C1 [Compound 106, 3-Amino-6-methyl-5,6,7,8-tetrahydro-thieno[2,3-b][1,6]naphthyridine-2-carboxylic acid benzylamide] | – | – | EC50 [4]: 5 to 25 µM
33 | CCN(CC)C(=O)c1sc2nc3c(cc2c1N)CCC3 [Compound 138, 3-Amino-6,7-dihydro-5H-cyclopenta[b]thieno[3,2-e]pyridine-2-carboxylic acid diethylamide] | – | – | EC50 [4]: > 25 µM
34 | CN1CCc2nc3sc(C(=O)Nc4c(Cl)cccc4Cl)c(N)c3cc2C1 [Compound 109, 3-Amino-6-methyl-5,6,7,8-tetrahydro-thieno[2,3-b][1,6]naphthyridine-2-carboxylic acid (2,6-dichloro-phenyl)-amide] | 5 to 25 | – | –
35 | CN1CCc2nc3sc(C(=O)Nc4ccc(F)cc4F)c(N)c3cc2C1 [Compound 111, 3-Amino-6-methyl-5,6,7,8-tetrahydro-thieno[2,3-b][1,6]naphthyridine-2-carboxylic acid (2,4-difluoro-phenyl)-amide] | 5 to 25 | – | –
36 | CCN1CCc2nc3sc(C(=O)N4CCc5ccccc5C4)c(N)c3cc2C1 [Compound 22, (3-Amino-6-ethyl-5,6,7,8-tetrahydro-thieno[2,3-b][1,6]naphthyridin-2-yl)-(3,4-dihydro-1H-isoquinolin-2-yl)-methanone] | – | – | EC50 [4]: < 5 µM
